Results published in US6635652B1, “Azaindolizinone derivatives and cerebral function improvers containing the same as the active ingredient” (Zenyaku Kogyo Kabushiki Kaisha, priority 1999, dated 2003).
Marks after values point to notes of the source that are not given here.

Key:
[1] = test system: amnesia of rats induced by scopolamine; assay: Effects on scopolamine-induced amnesia (passive avoidance task, oral administration); type: in vivo; details: 60 min before retention trial, scopolamine hydrobromide 2 mg/kg i.p., passive avoidance latency, male Strague Dawley rats; for inhibition in vivo at 1 mg/kg / inhibition in vivo at 0.01 mg/kg: Rattus norvegicus, po, read-out: Inhibitory rate (%); for inhibition in vivo at 1 mg/kg: 1 mg/kg p.o.; for inhibition in vivo at 0.01 mg/kg / Inhibitory rate (%): 0.01 mg/kg p.o.
Description: Male rats of the Strague Dawley strain at 8 weeks of age (260±2 g body weight) were used for evaluation through passive avoidance task. The apparatus of passive avoidance task comprises illuminated and dark chambers which are separated from each other by a wall with a door. Floors are constituted by grids made of stainless steel; only the grid in the dark chamber is furnished with wiring for electrification.
Effected on the first and second days of testing was preparative training; each rat was placed in the illuminated chamber and left for 3 minutes to habituate to the apparatus. On the third day of testing, the rats were individually placed in the illuminated chamber and after entering the dark chamber, the door was closed and the floor grid was electrified to deliver electric shock (100 V, 0.4 mA, a period of 0.8 sec). In order to induce amnesia, scopolamine hydrobromide (2 mg/kg) was intraperitoneally injected 20 minutes before the electric shock was delivered. Retention in memory on the electric shock was tested 24 hours later; more specifically, retention in passive avoidance trial was measured in terms of a time interval (latency) from placement of each rat in the illuminated chamber to its entry into the dark chamber. The latency over 300 seconds was recorded as 300 seconds. Respective test compounds were suspended in an aqueous solution of 1% carboxymethyl cellulose and orally administered at a dose of 0.01 or 1 mg/kg 60 minutes before the trial.
Antiamnesic effects of the test compounds were evaluated by inhibitory rate (%) which is calculated by the following formula: [formula]
wherein T stands for latency and SC stands for administration of scopolamine hydrobromide. Experimental results are shown in the following table in which, as to each of the test compounds, only the dose showing higher inhibitory rate was indicated.

| Compound | inhibition in vivo at 1 mg/kg [1] [%] | melting point | inhibition in vivo at 0.01 mg/kg [1] [%] | Inhibitory rate (%) [1] |
| --- | --- | --- | --- | --- |
| CCCC1(CCC)C(=O)N=C2C=CC=CN21 [Compound 29, 3,3-Dipropylimidazo[1,2-a]pyridin-2(3H)-one] | 115 | 73 to 75 °C | – | – |
| C=CCC1(CC=C)C(=O)N=C2C=CC=CN21 [Compound 23, 3,3-Diallylimidazo[1,2-a]pyridin-2(3H)-one] | – | 64 to 66 °C | 53.6 | – |
| O=C1N=C2C=CC=CN2C1(Cc1ccc(-c2ccccc2)cc1)Cc1ccc(-c2ccccc2)cc1 [Compound 20, 3,3-bis(4-Biphenylmethyl)imidazo[1,2-a]pyridin-2(3H)-one] | – | – | – | 30.2* % |
| O=C1N=C2C=CC=CN2C1(Cc1ccc(F)cc1)Cc1ccc(F)cc1 [Compound 16, 3,3-bis(4-Fluorobenzyl)imidazo[1,2-a]pyridin-2(3H)-one] | – | 290 to 292 °C | 55.4 | – |
| O=C1N=C2C=CC=CN2C1(CCCc1ccccc1)CCCc1ccccc1 [Compound 26, 3,3-bis(3-Phenyl-1-propyl)imidazo[1,2-a]pyridin-2(3H)-one] | – | 227 to 228 °C | 53.5 | – |
| COc1cc2c(cc1OC)C(=O)C(CC1CCN(Cc3ccccc3)CC1)C2 (racemic) [Compound C, (R,S)-1-benzyl-4-(5,6-dimethoxy-1-indanon-2-yl)-methylpiperidine, reference compound] | 24.7 | – | 12.5 | – |
| O=C(O)c1ccc(CC2(Cc3ccc(C(=O)O)cc3)C(=O)N=C3C=CC=CN32)cc1 [Compound 40, 3,3-bis(4-Carboxybenzyl)imidazo[1,2-a]pyridin-2(3H)-one] | 40.7 | > 300 °C | – | – |
| O=C1N=C2C(OCC3CC3)=CC=CN2C1(Cc1ccccc1)Cc1ccccc1 [Compound 3, 3,3-Dibenzyl-8-cyclopropylmethyloxyimidazo[1,2-a]-pyridin-2(3H)-one] | 47.4 | 236 to 237 °C | – | – |
| Cc1cccc(CC2(Cc3cccc(C)c3)C(=O)N=C3C(OCc4ccccc4)=CC=CN32)c1 [Compound 14, 8-Benzyloxy-3,3-bis(3-methylbenzyl)imidazo[1,2-a]pyridin-2(3H)-one] | 56.7 | 233 to 235 °C | – | – |
| O=C1N=C2C=CC=CN2C1(Cc1ccc([N+](=O)[O-])cc1)Cc1ccc([N+](=O)[O-])cc1 [Compound 38, 3,3-bis(4-Nitrobenzyl)imidazo[1,2-a]pyridin-2(3H)-one] | 58.5 | > 300 °C | – | – |
| CC(c1ccccc1)C1(C(C)c2ccccc2)C(=O)N=C2C(OCc3ccccc3)=CC=CN21 (stereo not shown) [Compound 7, 8-Benzyloxy-3,3-bis(1-phenylethyl)imidazo[1,2-a]-pyridin-2(3H)-one] | – | 234 to 235 °C | – | – |
| CC(C)OC1=CC=CN2C1=NC(=O)C2(Cc1ccccc1)Cc1ccccc1 [Compound 1, 3,3-Dibenzyl-8-isopropoxyimidazo[1,2-a]-pyridin-2(3H)-one] | 50.4 | 247 to 248 °C | – | – |
| O=C1N=C2C(O)=CC=CN2C1(Cc1ccccc1)Cc1ccccc1 [Compound 36, 3,3-Dibenzyl-8-hydroxyimidazo[1,2-a]pyridin-2(3H)-one] | – | 283 to 285 °C | 30 | – |
| CC(=O)NC1=CC=CN2C1=NC(=O)C2(Cc1ccccc1)Cc1ccccc1 [Compound 31, 8-Acetylamino-3,3-dibenzylimidazo[1,2-a]pyridin-2(3H)-one] | 60.4 | 235 to 237 °C | – | – |
| O=C1N=C2C(Cl)=CC(C(F)(F)F)=CN2C1(Cc1ccccc1)Cc1ccccc1 [Compound 13, 3,3-Dibenzyl-8-chloro-6-trifluoromethylimidazo[1,2-a]pyridin-2(3H)-one] | – | 234 to 236 °C | 57 | – |
| O=C1N=C2C=CC=CN2C1(Cc1cccc(Cl)c1)Cc1cccc(Cl)c1 [Compound 18, 3,3-bis(3-Chlorobenzyl)imidazo[1,2-a]pyridin-2(3H)-one] | 58.7 | 271 to 272 °C | – | – |
| C=CCOC1=CC=CN2C1=NC(=O)C2(Cc1ccccc1)Cc1ccccc1 [Compound 5, 8-Allyloxy-3,3-dibenzylimidazo[1,2-a]pyridin-2(3H)-one] | 34.8 | 214 to 215 °C | – | – |
| C#CCC1(CC#C)C(=O)N=C2C=CC=CN21 [Compound 35, 3,3-di(2-Propynyl)imidazo[1,2-a]pyridin-2(3H)-one] | – | 172 to 175 °C | 30.3 | – |
| N#Cc1ccc(CC2(Cc3ccc(C#N)cc3)C(=O)N=C3C=CC=CN32)cc1 [Compound 21, 3,3-bis(4-Cyanobenzyl)imidazo[1,2-a]pyridin-2(3H)-one] | – | 294 °C (dec.) | 58 | – |
| O=C1N=C2C(NCc3ccccc3)=CC=CN2C1(Cc1ccccc1)Cc1ccccc1 [Compound 37, 3,3-Dibenzyl-8-benzylaminoimidazo[1,2-a]pyridin-2(3H)-one] | – | 250 °C | 56 | – |
| O=C1N=C2C=CC=CN2C1(Cc1ccccc1)Cc1ccc(F)cc1 (stereo not shown) [Compound 39, 3-Benzyl-3-(4-fluorobenzyl)imidazo[1,2-a]pyridin-2(3H)-one] | – | > 300 °C | 43.7 | – |
| O=C1N=C2C(OCc3ccccc3)=CC=CN2C1(Cc1ccccc1)Cc1ccccc1 [Compound 6, 3,3-Dibenzyl-8-benzyloxyimidazo[1,2-a]pyridin-2(3H)-one] | – | 240 to 241 °C | 58.8 | – |
| C=CCC1(CC=C)C(=O)N=C2C(OCc3ccccc3)=CC=CN21 [Compound 25, 3,3-Diallyl-8-benzyloxyimidazo[1,2-a]pyridin-2(3H)-one] | – | 160 to 162 °C | – | – |
| CC1(C)C(=O)N=C2C=CC=CN21 [Compound 33, 3,3-Dimethylimidazo[1,2-a]pyridin-2(3H)-one] | – | 200 to 202 °C | – | – |
| O=C1N=C2C(Cl)=CC(Cl)=CN2C1(Cc1ccccc1)Cc1ccccc1 [Compound 12, 3,3-Dibenzyl-6,8-dichloroimidazo[1,2-a]pyridin-2(3H)-one] | – | 260 to 261 °C | – | – |
| O=C1N(c2ccccc2)c2ccccc2C1(Cc1ccncc1)Cc1ccncc1 [Compound A, 3,3-bis(4-pyridylmethyl)-1-phenylindolin-2-one, reference compound] | 20.9 | – | 8.8 | – |
| O=C1N=C2C=CC=CN2C12Cc1cccc3cccc(c13)C2 [Compound 27, Spiro[imidazo[1,2-a]pyridin-2(3H)-one-3,2′-[2,3]dihydrophenalene]] | – | – | – | 60.7* % |
| O=C1N=C2C=CC=CN2C12Cc1ccccc1C2 [Compound 24, Spiro[imidazo[1,2-a]pyridin-2(3H)-one-3,2′-indan]] | – | – | – | 56.8** % |
| Nc1c2c(nc3ccccc13)CCCC2 [Compound B, 9-amino-1,2,3,4-tetrahydro-acridine, reference compound] | 54.9 | – | 24.1 | – |
| CC1=CC=CN2C1=NC(=O)C2(Cc1ccncc1)Cc1ccncc1 [Compound 15, 8-Methyl-3,3-bis(4-pyridylmethyl)imidazo[1,2-a]-pyridin-2(3H)-one] | – | 228 to 230 °C | – | – |
